Read-outs that look alike come from different tables or passages of the source.
Tests used:
[1] = assay type: in vivo
Method: Samples were prepared by adding ergothioneine to 1% to 50% sucrose solutions to final concentrations of 0 ppm, 0.05 ppm, 0.1 ppm, 0.25 ppm, and 0.5 ppm (ERG0 to 0.5 in Table 1 below; hereinafter, "ERGX" means a sample to which X ppm of ERG is added).
A drinking test by an expert panel of four, different from those in Tests 1 and 2, was conducted on 1% to 50% sucrose samples to which ERG was added at each concentration (the concentration was not disclosed to the panel), using a 1% to 50% sucrose sample to which no ergothioneine was added as a control, and sweetness was sensorially evaluated. After tasting each sample and before tasting the next sample, the mouth was completely rinsed with water at room temperature. Pairs combining the control 1% to 50% sucrose sample and the 1% to 50% sucrose sample containing ergothioneine at each concentration were presented to the expert panel, and the panel evaluated which sample of the presented pair was perceived to be sweeter by a paired comparison test.
(§1) Evaluation results of sweetness of test product compared with control • ∘: Sweetness was enhanced compared to the control. • ◇: Sweetness was similar to that of the control.

[2] = assay type: in vivo; conditions: amazake
Method: as §1
1,250 g of white rice was soaked in water overnight, transferred to a colander, and drained for 2 hours. Thereafter, the rice was wrapped in a Tetoron cloth and steamed at 100°C for 40 minutes. The steamed rice was cooled to 45°C, and a seed koji was inoculated. The rice was wrapped in a Pylen cloth, and koji-making was started under the conditions of 35°C and 95% humidity. 19 hours after the start of koji-making, the rice koji was loosened and wrapped again in the Pylen cloth. When the product temperature reached 40°C, the Pylen cloth was spread and the rice koji was leveled. After another 40 hours, the rice koji was well loosened and left to stand again. After 42 hours, the koji was taken out. […]
The sweetness of the amazake was sensorially evaluated by an expert panel consisting of five trained sweetness-sensitive subjects.
Pairs combining amazake containing ERG at different concentrations shown in Table 19 (ERG12 to 345) were presented to the expert panel of five, and the panelists evaluated which sample of the presented pair was perceived to be sweeter by a paired comparison test.

[3] = assay type: in vivo; remark: listed apart in the source
Method: as §1
Samples (ERG0 to 10) were prepared by adding ergothioneine to 20% fructose samples to final concentrations of 0.5 ppm, 1 ppm, 3 ppm, 5 ppm, and 10 ppm.
A drinking test by a panel of four experts was conducted on 20% fructose samples to which ERG was added at each concentration (the concentration was not disclosed to the panel), using a 20% fructose sample to which no ergothioneine was added as a control, and sweetness was sensorially evaluated.
In addition, samples (ERG0.5 to 900) were prepared by adding ergothioneine to 20% fructose samples to final concentrations of 0.5 ppm, 5 ppm, 10 ppm, 20 ppm, 40 ppm, 60 ppm, 80 ppm, 100 ppm, 200 ppm, 400 ppm, and 900 ppm.
Pairs combining 20% fructose samples containing different concentrations of ERG (for example, a pair of ERG 20 ppm and 40 ppm) were presented to the expert panel, and the panel evaluated which sample of the presented pair was perceived to be sweeter by a paired comparison test.

[4] = Test 9 (2): paired comparison test of sweetness, 50% liquid sugar sample; assay type: in vivo; conditions: 50% liquid sugar samples
[5] = assay type: in vivo; conditions: amakuchi soy sauce
Method: as §1
(§2) A drinking test by a panel of three experts was conducted on the soy sauce to which ERG was added at each concentration (the concentration was not disclosed to the panel), using a soy sauce to which no ergothioneine was added (ERG0) as a control, and the sweetness was sensorially evaluated by a paired comparison test.
The same test as in (1) described above was conducted by adding ERG to a commercially available amakuchi soy sauce (Golden Murasaki, Fundokin Shoyu).

[6] = assay type: in vivo; conditions: 50% trehalose samples
Method: as §1
In the following Test 9, sensory evaluation was performed by a panel of three experts in the same paired comparison test as in Tests 3, 5, and 7.
Samples were prepared by adding ergothioneine to a 50% trehalose sample to final concentrations of 0.5 ppm, 1 ppm, 3 ppm, 5 ppm, 10 ppm, and 20 ppm (Table 11, ERG0 to 20).
For the 50% trehalose samples to which ERG was added at each concentration (the concentration was not disclosed to the panel), pairs combining a control 50% trehalose sample and a 50% trehalose sample containing ergothioneine at each concentration were presented to the expert panel, and the panel evaluated which sample of the presented pair was perceived to be sweeter by a paired comparison test.

[7] = assay type: in vivo; remark: listed apart in the source
Method: Evaluation results of sweetness of test product compared with control • ∘: Sweetness was enhanced compared to the control. • ◇: Sweetness was similar to that of the control. […]
A drinking test by a panel of three experts was conducted on the prepared soy milk to which ERG was added at each concentration (the concentration was not disclosed to the panel), using a prepared soy milk to which no ergothioneine was added (ERG0) as a control, and the sweetness was sensorially evaluated by a paired comparison test.

[8] = Test 9 (5): paired comparison test of sweetness, 10% aspartame sample; assay type: in vivo; conditions: 10% aspartame samples
Method: Samples were prepared by adding ERG to a 10% aspartame sample of aspartame (Pal Sweet Slim Up Sugar, Ajinomoto Co., Inc.) to the ERG concentrations shown in Table 16 (ERG0 to 20). Pairs combining a control 10% aspartame sample and a 10% aspartame sample containing ERG at each concentration were presented, and the panel evaluated which sample of the presented pair was perceived to be sweeter by a paired comparison test.

[9] = assay type: in vivo; conditions: specially selected whole soybean soy sauce
Method: as §1
Soy sauces were prepared by adding ergothioneine to a commercially available specially selected whole soybean soy sauce (Kikkoman Corporation) to addition concentrations of 10 ppm, 20 ppm, and 50 ppm (EGR10, 20, 50).
as §2

[10] = sucrose solution of 0.5% or more and less than 1%
[11] = sucrose solution of 1% or more and less than 10%
[12] = sucrose solution of 10% or more

C[N+](C)(C)[C@@H](Cc1c[nH]c(=S)[nH]1)C(=O)[O-] [ERG, Ergothioneine]
ERG added at which all evaluated that the sweetness was enhanced [1, 10]: ≥ 0.5 ppm | amount of ERG having a sweetness-enhancing effect relative to the sucrose content [1, 10]: ≥ 0.01 % by weight | ERG added at which all evaluated that the sweetness was enhanced [1, 11]: ≥ 0.25 ppm | amount of ERG having a sweetness-enhancing effect relative to the sucrose content [1, 11]: ≥ 0.0025 % by weight | ERG added at which all evaluated that the sweetness was enhanced [1, 12]: ≥ 0.1 ppm | amount of ERG having a sweetness-enhancing effect relative to the sucrose content [1, 12]: ≥ 0.0001 % by weight | ERG content at which all the panelists evaluated that the sweetness was enhanced [2]: ≥ 30 ppm | ERG content above which the degree of sweetness enhancement did not change ([2]; 345 ppm judged equivalent by a majority of the panelists): 145 ppm | ERG concentration at which the sweetness-enhancing effect became constant ([3]; 20% fructose): 80 ppm | ERG added at which all the panelists evaluated that the sweetness was enhanced ([3]; 20% fructose samples): ≥ 0.5 ppm | ERG having a sweetness-enhancing effect, based on the fructose content ([3]; 20% fructose samples): ≥ 0.0003 % by weight | ERG added at which all the panelists evaluated that the sweetness was enhanced [4]: ≥ 0.5 ppm | ERG added at which all the panelists evaluated that the sweetness was enhanced [5]: ≥ 10 ppm | ERG added at which all the panelists evaluated that the sweetness was enhanced [6]: ≥ 0.5 ppm | ERG having a sweetness-enhancing effect, based on the trehalose content [6]: ≥ 0.0001 % by weight | ERG content at which all the panelists evaluated the enhancement of sweetness ([7]; prepared soy milk): 5 ppm | ERG content at which two panelists evaluated that the sweetness was enhanced ([7]; prepared soy milk): 3 ppm | creamy feel ([7]; prepared soy milk containing 40 ppm of ERG): increased | ERG added at which three panelists evaluated that the sweetness was enhanced [8]: ≥ 0.5 ppm | ERG having a sweetness-enhancing effect, based on the aspartame content [8]: ≥ 0.0005 % by weight | ERG added at which all the panelists evaluated that the sweetness was enhanced [9]: ≥ 10 ppm
